Data: patent US20230346808A1, “CANNABINOID FORMULATIONS AND METHODS OF USE” (PreveCeutical Medical Inc., priority 2020, published 2023)
“And” between values parts separate entries of the source, which are not always exact repeats. Identical values can stand only once.

Tests used:
[1] = test system: explanted nasal mucosal tissue; assay: Ex vivo deposition into nasal mucosa, vertical Franz-diffusion apparatus; assay type: in vitro ADME, human; details: for Deposition of key cannabinoids in µg/g of nasal tissue, Decarboxylated (average of batches D19 & D23): 300 µL decarboxylated sol-gel; for Deposition of key cannabinoids in µg/g of nasal tissue, Decarboxylated (average of batches D19 & D23) / Deposition of key cannabinoids in µg/g of nasal tissue, Native (average of batches N22 & 23): 8 hours post-application, 34° C.; for Deposition of key cannabinoids in µg/g of nasal tissue, Native (average of batches N22 & 23): 300 µL native sol-gel
Method: Ex vivo permeation studies were carried out using vertical Franz-diffusion apparatus equipped with temperature-controlled jackets set at 34° C. ± 1° C. Nasal mucosa was taken from middle-turbinate of patients undertaking surgery at Greenslopes Private Hospital. Mucosal tissue was cleaned of blood and bone, then immersed in phosphate-buffered saline (PBS; pH 7.4) at room temperature. The prepared nasal membrane was then sandwiched between donor and receptor cells with the dorsal side of the tissue facing the donor compartment and the ventral side facing the receiver compartment. The receptor cells were filled with 12 mL of PBS and then 300 µL of native or decarboxylated sol-gel samples placed in the donor compartment, ensuring that formulations spread over the entire tissue. To prevent evaporation of the samples, donor cells were covered with Parafilm®. Samples from the receptor cell were taken and volume replaced with PBS at 0, 1, 2, 4, 6 and 8-hours following sol-gel application. Collected tissue samples were then rinsed with MilliQ water after 8 hours, blotted dry with filter paper, wrapped with aluminium foil to protect from light and stored at -80° C. until required for further analysis.
On the day of analysis, the tissue samples were allowed to thaw and were blotted dry using filter paper, cut into small pieces, frozen with liquid nitrogen and ground with a mortar and pestle. Cannabis was extracted from the powdered tissue with ethanol (1 mL) and gently agitated for 12 hours at room temperature. Samples were then transferred to Eppendorf tubes and centrifuged at 10000 rpm for 10 minutes. The supernatant was collected and 100 µL of acetonitrile added to each tube then supernatant collected and again 100 µL was added and stored at -20° C. overnight. The following day each sample was allowed to thaw and centrifuged at 10000 rpm for 10 minutes with supernatant collected and prepared for quantitative analysis using the HPLC method described above in Example 5. Samples of Cannabis sol-gels from native (N22 and N23) and decarboxylated (D19 and D23) extracts were used in this study.
The tissue deposition of cannabinoids was measured per gram of nasal mucosa, with studies based on tissue availability from patients undergoing sinus surgery, and key cannabinoids detected presented in Table 8. The data shown is an average of the 2 native or 2 decarboxylated batches. The amount of sol-gel administered (300 µL) accounts for 3000 µg of cannabinoid content which is a surplus amount (based on micelles, this approximately correlates to the following: for native sol-gels maximum of […] CBDA, 1200 µg THCA; for decarboxylated sol-gels maximum of 960 µg CBDA, 45 µg THCA).

human nasal mucosa [2] = details: 2 µL applied, media harvested daily for five days, n = 3
Method: Lactate dehydrogenase (LDH) is an oxidoreductase enzyme found in living cells that is released into the cytoplasm upon cell lysis that is under stressor conditions. LDH is detected via a colourimetric cytotoxicity assay that provides a measure of membrane integrity, with high titres of LDH being an indicator of acute cellular damage/toxicity (Lim et al, International Forum of Allergy & Rhinology, 2012, 2(1): p 63-68). […] Acute toxicity was assessed in freshly explanted human nasal tissue.
Human specimens were dissected, connective tissue, debris or blood were removed utilising a 15 blade scalpel and divided into 2-3 mm x 2-3 mm x 1-2 mm sections. […]
LDH was used as the biomarker and analysed using the CytoTox 96® Non-Radioactive cytotoxicity assay kit following manufacturer instructions (Promega, Madison WI). […] After the end of the study, the absorbance of each sample was obtained at 490 nm using FLUOstar Omega Spectrophotometer (BMG Labtech, Offenburg, Germany). The extracellular LDH level was calculated as changes in the LDH levels of tissues treated with a formulation versus tissues treated with PBS. Statistical differences were analysed by one-way ANOVA followed by Dunnet’s multiple comparison test using GraphPad Prism software (v 7.03).

human nasal mucosa [3] = details: tissue from end of the 5 day study
Method: Untreated tissue samples and post-treated tissue samples from the end of the study were preserved from each well for histological evaluation. Each sample was fixed using 4% formaldehyde and stored at 4° C. overnight. On the following day, tissues were dipped in 20% sucrose overnight and embedded in OCT, frozen at -20° C. and cryo-sectioned into slices. Staining was performed with hematoxylin and eosin for 1 minute and stained samples dehydrated in ethanol, defatted in xylene and cover-slipped for histological examination.
Tissues were examined for morphological changes.

| Compound | Deposition of key cannabinoids in µg/g of nasal tissue, Decarboxylated (average of batches D19 & D23) [1] | Deposition of key cannabinoids in µg/g of nasal tissue, Native (average of batches N22 & 23) [1] | Higher tissue level from decarboxylated versus native sol-gels ([1]; decarboxylated versus native extract infused sol-gels) | Extracellular LDH levels versus PBS negative control (human nasal mucosa [2]) | Morphological changes of epithelial and sub epithelial layers of nasal mucosa (human nasal mucosa [3]) |
| --- | --- | --- | --- | --- | --- |
| CCCCCc1cc(O)c2c(c1)OC(C)(C)[C@@H]1CCC(C)=C[C@@H]21 [THC, delta-9-tetrahydrocannabinol] | 4.19 µg/g and 4.19 ± 2.20 µg/g | 3.54 µg/g and 3.54 ± 1.74 µg/g |  |  |  |
| C=C(C)[C@@H]1CCC(C)=C[C@H]1c1c(O)cc(CCCCC)cc1O [CBD, cannabidiol] | 3.56 µg/g and 3.56 ± 1.67 µg/g | 3.47 µg/g and 3.47 ± 1.53 µg/g |  |  |  |
| C=C(C)[C@@H]1CCC(C)=C[C@H]1c1c(O)cc(CCCCC)c(C(=O)O)c1O [CBDA, Cannabidiolic acid] | 10.9 µg/g and 10.9 ± 1.81 µg/g | 3.14 µg/g and 3.14 ± 2.98 µg/g | ca. 3 fold |  |  |
| CCCCCc1cc2c(c(O)c1C(=O)O)C1C=C(C)CCC1C(C)(C)O2 (centres unmarked) [THCA, Δ^9-Tetrahydrocannabinolic acid] | 11.3 µg/g and 11.3 ± 10.2 µg/g | 5.73 µg/g and 5.73 ± 0.51 µg/g |  |  |  |
| O=S(=O)([O-])[O-].[Zn+2] [ZnSO4, Zinc sulfate] |  |  |  | significant elevation in LDH levels at day 2 | gross cell and tissue structural damage |
